Measurements reported in PMC4026310 (Drug Design, Development and Therapy, 2014).

How the values were obtained:
P-gp = conditions: patients receiving quinidine (P-gp inhibitor) treatment; cited from earlier work
liver = assay: In situ liver perfusion; type: in vivo, Sprague Dawley rats; conditions: rat in situ liver perfusion, within 120 minutes

Row | SMILES | Patients showing an obvious increase in the blood concentration of digoxin (P-gp) [%] | Effect of inhibitor on the elimination rate of periplocin in the perfusate (liver)
1 | C=C[C@H]1C[N@@]2CC[C@H]1C[C@@H]2[C@@H](O)c1ccnc2ccc(OC)cc12 [quinidine] | 90 | 
2 | CO[C@H]1/C=C/O[C@@]2(C)Oc3c(C)c(O)c4c(O)c(c(/C=N/N5CCN(C)CC5)c(O)c4c3C2=O)NC(=O)/C(C)=C\C=C\[C@H](C)[C@H](O)[C@@H](C)[C@@H](O)[C@@H](C)[C@H](OC(C)=O)[C@@H]1C [rifampicin] |  | significantly reduced
